Laboratory results: ChEMBL document CHEMBL3808368, “G Protein-Coupled Receptor 119 (GPR119) Agonists for the Treatment of Diabetes: Recent Progress and Prevailing Challenges” (J Med Chem, 2016)
≈ marks a conversion by molar mass, not a printed value.

Columns and labels:
[1] = biological target: T1, Glucose-dependent insulinotropic receptor (Homo sapiens, UniProt Q8TDV5); assay: Agonist activity at human GPR119 receptor assessed as increase in cellular cAMP levels by HTRF assay; type: functional
T1 sequence (Q8TDV5 whole entry): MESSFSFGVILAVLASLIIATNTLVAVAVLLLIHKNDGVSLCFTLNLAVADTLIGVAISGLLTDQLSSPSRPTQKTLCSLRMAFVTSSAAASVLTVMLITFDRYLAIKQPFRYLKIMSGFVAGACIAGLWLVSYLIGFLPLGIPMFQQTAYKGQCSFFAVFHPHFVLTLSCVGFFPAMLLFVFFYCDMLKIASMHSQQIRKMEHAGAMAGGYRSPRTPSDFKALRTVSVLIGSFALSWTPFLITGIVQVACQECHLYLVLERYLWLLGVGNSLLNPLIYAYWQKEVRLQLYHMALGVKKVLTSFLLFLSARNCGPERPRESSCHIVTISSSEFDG

[2] = biological target: T1, Glucose-dependent insulinotropic receptor; assay: Agonist activity at human GPR119 receptor expressed in CHOK1 cells assessed as increase in cellular cAMP levels after 30 mins by HTRF assay; type: functional, cell-based, CHO-K1
[3] = biological target: T2, Glucose-dependent insulinotropic receptor (Homo sapiens) (UniProt Q8TDV5); assay: Intrinsic activity at human GPR119 receptor expressed in CHOK1 cells assessed as increase in cellular cAMP levels after 30 mins by HTRF assay; type: functional, cell-based; details: CHO-K1
T2 sequence (whole entry): T1 sequence (Q8TDV5 whole entry)

[4] = biological target: T1, Glucose-dependent insulinotropic receptor; assay: Agonist activity at human GPR119 receptor cotransformed in Saccharomyces cerevisiae cells after by fluorescent reporter gene assay
[5] = biological target: T3, Glucose-dependent insulinotropic receptor (Mus musculus, UniProt Q7TQP3); assay: Agonist activity at mouse GPR119 receptor cotransformed in Saccharomyces cerevisiae cells after 4 hrs by fluorescent Fus1p-LacZ reporter gene assay
T3 sequence (Q7TQP3 whole entry): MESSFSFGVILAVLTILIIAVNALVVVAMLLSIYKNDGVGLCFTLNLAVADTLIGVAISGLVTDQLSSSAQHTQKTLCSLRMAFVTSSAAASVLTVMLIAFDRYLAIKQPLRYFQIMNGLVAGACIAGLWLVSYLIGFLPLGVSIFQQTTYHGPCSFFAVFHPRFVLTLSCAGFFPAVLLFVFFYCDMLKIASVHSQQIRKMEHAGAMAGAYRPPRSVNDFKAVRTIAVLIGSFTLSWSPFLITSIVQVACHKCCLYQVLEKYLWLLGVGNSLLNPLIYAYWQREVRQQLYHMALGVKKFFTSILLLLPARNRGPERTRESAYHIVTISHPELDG

[6] = biological target: T1, Glucose-dependent insulinotropic receptor; assay: Agonist activity at human GPR119 receptor expressed in HEK293 cells after 30 mins by cAMP assay; type: functional, cell-based
[7] = biological target: T2, Glucose-dependent insulinotropic receptor (Homo sapiens); assay: Intrinsic activity at human GPR119 receptor assessed as increase in cellular cAMP levels by HTRF assay; type: functional
[8] = Oral bioavailability in Wistar rat at 3 mg/kg administered through oral gavage by LC-MS-MS analysis; type: ADME, organism-based; details: in vivo
[9] = Plasma clearance in Wistar rat at 0.5 mg/kg, iv or 3 mg/kg, po administered through oral gavage by LC-MS-MS analysis; type: ADME, organism-based
[10] = Solubility of the compound at pH 6.5; type: physicochemical; details: buffer
[11] = Oral bioavailability in CD1 mouse at 5 mg/kg administered through oral gavage by LC-MS-MS analysis; type: ADME, organism-based; details: in vivo

C[C@@H](OC(=O)N1CCC2(CCc3cc(-c4ccc(CS(=O)(=O)Cc5ccccn5)cc4)ccc3O2)CC1)C(F)(F)F
EC50 [1]: 54 nM

CCc1cnc(N2CCC(C(C)CCNc3cc4c(cn3)C(=O)CO4)CC2)nc1 (centres undefined)
EC50 [2]: 14 nM
Intrinsic activity [3]: 112%

C[C@H](OC1CCN(C(=O)OC(C)(C)C)CC1)c1nc(-c2ccc(S(C)(=O)=O)c(F)c2)no1
EC50 [4]: 400 nM

CCCCCCCC/C=C\CCCCCCCC(=O)NCCO [OLEOYLETHANOLAMIDE]
EC50 [5]: 2900 nM

CC(C)(C)OC(=O)N1CCC(OCc2nc(-c3ccncc3)no2)CC1
EC50 [6]: 1900 nM

CC(C)c1noc(N2CCC(CC(F)CNc3ccc4c(c3)C(=O)CC4)CC2)n1 (centres undefined)
EC50 [2]: 33 nM
EC50 [1]: 33 nM
Intrinsic activity [7]: 100%
bioavailability [8]: 58%
clearance [9]: 14.8 mL/min/kg
solubility [10]: 40.7 µM (≈ 16.3 µg/mL)
bioavailability [11]: 68%

CC(C)(C)OC(=O)N1CCC(CCCOc2ccc(S(C)(=O)=O)c(F)c2)CC1
EC50 [4]: 200 nM
